Experimental findings from US20230227500A1, “NANOPARTICLE-LIKE DELIVERY SYSTEM” (Evox Therapeutics Ltd, priority 2019, published 2023) are described below.

Where a SMILES comes first, the peptide text is derived from it. Bridges are numbered along the chain shown (N, C = ends). [ ]: non-standard residue; d: D form. R8 = C=CCCCCCC[C@@](C)(N)C(=O)O; S8 = C=CCCCCCC[C@](C)(N)C(=O)O; S5 = C=CCCC[C@](C)(N)C(=O)O

One data set relates to mice. Put plainly: Tolerability of peptide/mRNA formulation after intravenous injection. The conditions noted are these: 6.25 mg/kg of mRNA/25 mg/kg of peptide, i.v. It counts as in vivo. The protocol: Delivery of mRNA was tested using the 246, Oct815 and Oct2815 peptides and a luciferase-encoding mRNA (Luc mRNA). Various peptides were formulated at 1.25 mg/kg of mRNA dosing, at a peptide-to-mRNA weight ratio 4. Oct2815 was also formulated at 6.25 mg/kg of mRNA dosing, at a peptide-to-mRNA weight ratio 4. The formulations were subsequently injected intravenously into NMRI mice. After 24 h of treatment, the mice were sacrificed and the lungs, heart, liver, spleen and kidneys dissected. Luciferase activity was measured in the dissected tissues by bioluminescence imaging on an IVIS in vivo imaging system.
The peptides of the invention are believed to be tolerated in a dose of up to 30 mg/kg in mice, which is at least 10-fold higher than the dose commonly known to be tolerated when using any CPP of the prior art in vivo.

Data set [1] in a line: In vivo delivery and biodistribution of Cy5-labelled SSO, IVIS imaging of dissected tissues. Set-up: species or system NMRI mice. The conditions noted are these: 2.5 mg/kg SSO, MR10, i.v., 48 h, FIG. 2(B). As for the experimental part:
In order to investigate the in vivo delivery capacity and biodistribution profile of the peptide/SSO nanoparticles, Oct2815 peptide was formulated at a dose of 50 μg (2.5 mg/kg) of Cy5-labelled 2′-OMe/LNA mixmer-based SSO (at MR10) and then injected intravenously into NMRI mice. After 48 h of treatment, the fluorescence values were measured from the dissected tissues (brain, liver, lungs, heart, G.I. tract, spleen, muscles and kidneys) of the animals with an IVIS in vivo imager.

Data set [2] has as its system HEK293T Stop-Light cells. Put plainly: Effect of additives on Cas9 RNP delivery, stop-light reporter. In kind it is cell-based. The conditions noted are these: FIG. 11. The protocol:
In order to investigate the effect of additives on the efficacy of the peptides/nanoparticles of the invention a range of different additives were tested and the effect on delivery of Cas9 ribonuncleoprotein (RNP) was examined using the same stop-light reporter system described above and illustrated in FIG. 5.
Peptides Oct215 or Oct2815 were tested. Cas9 RNP was formulated in HBG buffer (HEPES buffered glucose) with either glycerol, PEG, PVP10, PVP55, PVA18, PVA40 or PVA-PEG. Oct215 or 2815 was added and incubated at room temperature for 40 min to allow peptide nanoparticles to form (1.1:1 sgRNA to Cas9 and 1:150 RNP:CPP).
Following incubation HEK293T Stop-Light cells were treated with the peptide RNP complex (25 ng Cas9 added to each well). After 72 h of treatment, eGFP expression was analysed by fluorescence-activated cell sorting (FACS) analysis. Gene editing efficiency was calculated as the percentage of eGFP expressing cells in the viable mCherry expressing population, mCherry being the marker for reporter construct expression and eGFP for gene editing of said construct.

The next data set has as its system HeLa pluc705 cells. Description: HeLa pluc705 splice correction reporter, delivery of SSOs. The conditions noted are these: 100 nM 2'OMe SSO, 24 h, MR3-MR10, FIG. 1B. In kind it is cell-based. From the text:
To evaluate the ability of peptides of the invention to effectively deliver SSOs into cells, the HeLa pluc705 splice correction reporter system was used as a model (FIG. 1A). In this assay, HeLa cells are stably transfected with a luciferase endocing sequence that is interrupted by the β-globin pre-mRNA carrying a crypting splice site. If the SSO is effectively delivered to the cells and reaches the cell nucleus, it masks the aberrant splicing site (depicted ON-705 on the right-hand side of FIG. 1A). By redirecting the splicing, it will give rise to the production of functional luciferase protein. The luciferase enzyme activity thus acts as a measure to assess the delivery efficacy of the SSOs. This model is known for being an excellent positive read-out system with wide dynamic range for evaluating and comparing the delivery of SSOs and different delivery vectors.
The peptides were formulated with 2′-O-methyl phosphorothioate (2′OMe)-based SSOs at different peptide-to-SSO molar ratios (MRs), namely MR3, MR5, MR7 and MR10. The HeLa pluc705 cells were treated with various peptide/SSO nanoformulations at 100 nM SSO concentration for 24 h. After this time, the luciferase activity was measured. Delivery efficacy was expressed as a fold-increase over the values from untreated (UT) cells (ie. fold increase in splice correction).

Data set [3] concerns HEK293T Stop-Light cells. Description: Cas9 RNP delivery, stop-light reporter gene editing (eGFP by FACS). It counts as cell-based. The conditions noted are these: FIG. 5B. From the text: Delivery of proteins is another important modality for the peptides of the present invention. In order to investigate the ability of the peptides to deliver protein, a stop-light reporter system was employed. FIG. 5A illustrates the stop-light reporter system, which is a quick and simple system to evaluate indel formation in stably transduced cells. Cells are transfected with a construct containing an mCherry gene followed by two enhanced green fluorescent protein (eGFP) genes that are shifted out of frame by +1 and +2 nucleotides, respectively. The mCherry gene is constituently expressed, while the eGFP genes are only expressed if a double stranded break in the linker creates insertions or deletions of +/−1 or 2 bp. This occurs upon the effective delivery of Cas9 RNP system to the nucleus of cells, which leads to one of the two eGFP genes being in frame and thus expressed. […]
5k HEK293T Stop-Light cells were treated with 50 ng ([…]) Cas9 that was formulated with various peptides at different peptide-to-Cas9 RNP MRs (50:1-100:1). After 72 h of treatment, eGFP expression was analysed by fluorescence-activated cell sorting (FACS) analysis. Gene editing efficiency was calculated as a percentage of cells in the cell population where eGFP expression was induced by the treatment.

As for `C=CCCCCCC[C@@](C)(NC(=O)[C@H](C)NC(=O)[C@H](CCCCN)NC(=O)[C@H](C)NC(=O)[C@H](CC(C)C)NC(=O)[C@H](CCCCN)NC(=O)[C@@](C)(CCCCCCC=C)NC(=O)[C@@H](N)CC(C)C)C(=O)N[C@@H](C)C(=O)N[C@@H](CCCCN)C(=O)N[C@@H](CC(C)C)C(=O)N[C@@H](CC(C)C)C(=O)N[C@@H](CCCCN)C(=O)N[C@@H](C)C(=O)N[C@@](C)(CCCCCCC=C)C(=O)N[C@@H](C)C(=O)N[C@@H](CCCCN)C(=O)N[C@@H](C)C(=O)N[C@@H](CC(C)C)C(N)=O` [Oct2815, H-L A(R8) K L A K A A(R8) A K L L K A A(S8) A K A L-NH2] (H-L[R8]KLAKA[R8]AKLLKA[S8]AKAL-NH2), the “side-effects at very high dosing” value with mice is on record as “without any apparent side-effects”. For the same compound, in data set [1], the “accumulation of SSO in liver in comparison with SSO alone (fold enrichment)” value was 2.5 fold, the “accumulation of SSO in lungs in comparison with SSO alone (fold enrichment)” value is on record as 3.5 fold and the “accumulation of SSO in spleen in comparison with SSO alone (fold enrichment)” value is listed as 5 fold.
For the compound “H-L A(R8) K L A K A A A K L L K A A(S8) A K A L-NH2 (H-L[R8]KLAKAAAKLLKA[S8]AKAL-NH2; staple 2-15; SMILES CC(C)C[C@H](NC(=O)[C@H](C)NC(=O)[C@H](CCCCN)NC(=O)[C@H](C)NC(=O)[C@]1(C)CCCCCCC=CCCCCCC[C@@](C)(NC(=O)[C@@H](N)CC(C)C)C(=O)N[C@@H](CCCCN)C(=O)N[C@@H](CC(C)C)C(=O)N[C@@H](C)C(=O)N[C@@H](CCCCN)C(=O)N[C@@H](C)C(=O)N[C@@H](C)C(=O)N[C@@H](C)C(=O)N[C@@H](CCCCN)C(=O)N[C@@H](CC(C)C)C(=O)N[C@@H](CC(C)C)C(=O)N[C@@H](CCCCN)C(=O)N[C@@H](C)C(=O)N1)C(N)=O) [Oct215]”, the “gene editing efficiency (efficacy of cargo delivery) with PVA-PEG” value in the data set with HEK293T Stop-Light cells [2] (25 ng Cas9, 1:150 RNP:CPP, HBG buffer with PVA-PEG, 72 h) is recorded as “up to 60%”. For the same compound, in the data set on HEK293T Stop-Light cells [2], the “effect of additives on efficacy” value is listed as “enhanced still further by the presence of different additives”.
As for “H-L A K L A K A A(R8) A K L L K A A(S5) A K A L-NH2 (H-LAKLAKA[R8]AKLLKA[S5]AKAL-NH2; staple 8-15; SMILES CC(C)C[C@H](NC(=O)[C@H](C)NC(=O)[C@H](CCCCN)NC(=O)[C@H](C)NC(=O)[C@]1(C)CCCC=CCCCCCC[C@@](C)(NC(=O)[C@H](C)NC(=O)[C@H](CCCCN)NC(=O)[C@H](C)NC(=O)[C@H](CC(C)C)NC(=O)[C@H](CCCCN)NC(=O)[C@H](C)NC(=O)[C@@H](N)CC(C)C)C(=O)N[C@@H](C)C(=O)N[C@@H](CCCCN)C(=O)N[C@@H](CC(C)C)C(=O)N[C@@H](CC(C)C)C(=O)N[C@@H](CCCCN)C(=O)N[C@@H](C)C(=O)N1)C(N)=O) [compound 246]”, the “SSO delivery and splice switching activity (fold increase in splice correction, luciferase activity)” value in the data set with HeLa pluc705 cells is “able to mediate effective SSO delivery and induce strong splice switching activity”.
Turning to “H-L A K L A K A A(R8) A K L L K A A(S8) A K A L-NH2 (H-LAKLAKA[R8]AKLLKA[S8]AKAL-NH2; staple 8-15; SMILES CC(C)C[C@H](NC(=O)[C@H](C)NC(=O)[C@H](CCCCN)NC(=O)[C@H](C)NC(=O)[C@]1(C)CCCCCCC=CCCCCCC[C@@](C)(NC(=O)[C@H](C)NC(=O)[C@H](CCCCN)NC(=O)[C@H](C)NC(=O)[C@H](CC(C)C)NC(=O)[C@H](CCCCN)NC(=O)[C@H](C)NC(=O)[C@@H](N)CC(C)C)C(=O)N[C@@H](C)C(=O)N[C@@H](CCCCN)C(=O)N[C@@H](CC(C)C)C(=O)N[C@@H](CC(C)C)C(=O)N[C@@H](CCCCN)C(=O)N[C@@H](C)C(=O)N1)C(N)=O) [Oct815]”, the “relative potency among peptides (Cas9 RNP gene editing)” value with HEK293T Stop-Light cells [3] was “most potent”. Also, the “SSO delivery and splice switching activity (fold increase in splice correction, luciferase activity)” value in the data set on HeLa pluc705 cells was “able to mediate effective SSO delivery and induce strong splice switching activity”.
